Reference: patent publication US20110039762A1, “TARGETED ANTIMICROBIAL MOIETIES” (C3 JIAN, INC., priority 2009, published 2011)
“Also recorded” adds a separate entry of the source. Ends that are not written are not given here.

Columns and labels:
[1] = system: MRSA; experiment: Kill or inhibit growth/proliferation; morphology, biofilm and growth disruption (Tables 5, 6); type: cell-based, Methicillin-resistant Staphylococcus aureus; design: key: A: Peptide aggregates; B: Less hyphal formation; Clumps; Diffuse clumps and small polyps; F: Diffuse growth; H: Thin; I: Growth inhibition; Microcolony formation; Rippled; Small polyps; Thick; W: Halo formation on top, microlonies on bottom; further: test concentration or dose not given here
[2] = system: microorganisms; experiment: Peptides having multiple activities (targeting/binding, antimicrobial, growth or phenotype altering)
Excerpt: In certain embodiments, peptides described herein can have multiple activities. Thus for example, a peptide can have both binding/targeting activity and antimicrobial activity. Such peptides can be used, e.g., in a chimeric construct, for any or all of these properties. Thus, for example, a peptide designated “B” in Table 8 can be used as a targeting peptide. If it is also designated G or M it can also be used for antimicrobial activity.

[3] = system: S. pneumoniae; experiment: Kill or inhibit growth/proliferation; morphology, biofilm and growth disruption (Tables 5, 6); type: cell-based, Streptococcus pneumoniae; design: key: A: Peptide aggregates; B: Less hyphal formation; Clumps; Diffuse clumps and small polyps; F: Diffuse growth; H: Thin; I: Growth inhibition; Microcolony formation; Rippled; Small polyps; Thick; W: Halo formation on top, microlonies on bottom; further: test concentration or dose not given here
[4] = system: S. epidermidis; experiment: as above; type: cell-based, Staphylococcus epidermidis; design: key: A: Peptide aggregates; B: Less hyphal formation; Clumps; Diffuse clumps and small polyps; F: Diffuse growth; H: Thin; I: Growth inhibition; Microcolony formation; Rippled; Small polyps; Thick; W: Halo formation on top, microlonies on bottom
[5] = system: S. mutans; experiment: as above; type: cell-based, Streptococcus mutans; design: key: A: Peptide aggregates; B: Less hyphal formation; Clumps; Diffuse clumps and small polyps; F: Diffuse growth; H: Thin; I: Growth inhibition; Microcolony formation; Rippled; Small polyps; Thick; W: Halo formation on top, microlonies on bottom; further: test concentration or dose not given here
[6] = system: MRSA; experiment: MIC (broth microdilution); type: cell-based, Methicillin-resistant Staphylococcus aureus
Procedure: (§1) Typically, the in vitro antimicrobial activity of antimicrobial agents is tested using standard NCCLS bacterial inhibition assays, or MIC tests (see, National Committee on Clinical Laboratory Standards “Performance Standards for Antimicrobial Susceptibility Testing,” NCCLS Document M100-S5 Vol. 14, No. 16, December 1994; “Methods for dilution antimicrobial susceptibility test for bacteria that grow aerobically-Third Edition,” Approved Standard M7-A3, National Committee for Clinical Standards, Villanova, Pa.).
(§2) Briefly, ˜1×10^5 cfu/mL bacteria were diluted in TH (S. mutans), or Mueller-Hinton (MH) broth (all other organisms) and distributed to 96-well plates. Serially-diluted (2-fold) peptides were then added and the plates incubated at 37° C. for 18-24 h. […] All experiments were conducted 10 times.

[7] = system: S. epidermidis; type: cell-based, Staphylococcus epidermidis; details: S. epidermidis; on Organism, effect: test concentration or dose not given here
Procedure: as §1, §2

[8] = system: A. niger; experiment: MIC (broth microdilution); type: cell-based, Aspergillus niger
Procedure: as §1, §2

[9] = system: S. pneumoniae; experiment: MIC (broth microdilution); type: cell-based, Streptococcus pneumoniae
Procedure: as §1, §2

[10] = system: microorganisms (e.g., bacteria, yeasts, fungi); experiment: Targeting peptide binding to target microorganisms (Table 3); details: preferably 1x PBS; for Target(s): microorganism(s) the targeting peptide binds; for Target(s) (microorganisms bound by the targeting peptide): peptide binding in aqueous buffers varied by peptide solubility
[11] = system: P. gingivalis; experiment: Kill or inhibit growth/proliferation; morphology, biofilm and growth disruption (Tables 5, 6); type: cell-based, Porphyromonas gingivalis; design: key: A: Peptide aggregates; B: Less hyphal formation; Clumps; Diffuse clumps and small polyps; F: Diffuse growth; H: Thin; I: Growth inhibition; Microcolony formation; Rippled; Small polyps; Thick; W: Halo formation on top, microlonies on bottom; further: test concentration or dose not given here
[12] = system: F. nucleatum; experiment: as above; type: cell-based, Fusobacterium nucleatum; design: key: A: Peptide aggregates; B: Less hyphal formation; Clumps; Diffuse clumps and small polyps; F: Diffuse growth; H: Thin; I: Growth inhibition; Microcolony formation; Rippled; Small polyps; Thick; W: Halo formation on top, microlonies on bottom; further: test concentration or dose not given here
[13] = system: P. aeruginosa; experiment: as above; type: cell-based, Pseudomonas aeruginosa; design: key: A: Peptide aggregates; B: Less hyphal formation; Clumps; Diffuse clumps and small polyps; F: Diffuse growth; H: Thin; I: Growth inhibition; Microcolony formation; Rippled; Small polyps; Thick; W: Halo formation on top, microlonies on bottom; further: test concentration or dose not given here
[14] = system: E. faecalis; experiment: as above; type: cell-based, Enterococcus faecalis; design: key: A: Peptide aggregates; B: Less hyphal formation; Clumps; Diffuse clumps and small polyps; F: Diffuse growth; H: Thin; I: Growth inhibition; Microcolony formation; Rippled; Small polyps; Thick; W: Halo formation on top, microlonies on bottom; further: test concentration or dose not given here
[15] = system: E. coli; experiment: as above; type: cell-based, Escherichia coli; design: key: A: Peptide aggregates; B: Less hyphal formation; Clumps; Diffuse clumps and small polyps; F: Diffuse growth; H: Thin; I: Growth inhibition; Microcolony formation; Rippled; Small polyps; Thick; W: Halo formation on top, microlonies on bottom; further: test concentration or dose not given here
[16] = system: B. subtilis; experiment: as above; type: cell-based, Bacillus subtilis; design: key: A: Peptide aggregates; B: Less hyphal formation; Clumps; Diffuse clumps and small polyps; F: Diffuse growth; H: Thin; I: Growth inhibition; Microcolony formation; Rippled; Small polyps; Thick; W: Halo formation on top, microlonies on bottom
[17] = system: C. albicans; experiment: as above; type: cell-based, Candida albicans; design: key: A: Peptide aggregates; B: Less hyphal formation; Clumps; Diffuse clumps and small polyps; F: Diffuse growth; H: Thin; I: Growth inhibition; Microcolony formation; Rippled; Small polyps; Thick; W: Halo formation on top, microlonies on bottom; further: test concentration or dose not given here
[18] = system: B. subtilis; experiment: MIC (broth microdilution); type: cell-based, Bacillus subtilis
Procedure: as §1, §2

[19] = system: C. jeikeium; experiment: Kill or inhibit growth/proliferation; morphology, biofilm and growth disruption (Tables 5, 6); type: cell-based, Corynebacterium jeikeium; design: key: A: Peptide aggregates; B: Less hyphal formation; Clumps; Diffuse clumps and small polyps; F: Diffuse growth; H: Thin; I: Growth inhibition; Microcolony formation; Rippled; Small polyps; Thick; W: Halo formation on top, microlonies on bottom; further: test concentration or dose not given here
[20] = system: M. luteus; experiment: as above; type: cell-based, Micrococcus luteus; design: key: A: Peptide aggregates; B: Less hyphal formation; Clumps; Diffuse clumps and small polyps; F: Diffuse growth; H: Thin; I: Growth inhibition; Microcolony formation; Rippled; Small polyps; Thick; W: Halo formation on top, microlonies on bottom; further: test concentration or dose not given here
[21] = system: C. jejuni; experiment: as above; type: cell-based, Campylobacter jejuni; design: key: A: Peptide aggregates; B: Less hyphal formation; Clumps; Diffuse clumps and small polyps; F: Diffuse growth; H: Thin; I: Growth inhibition; Microcolony formation; Rippled; Small polyps; Thick; W: Halo formation on top, microlonies on bottom; further: test concentration or dose not given here
[22] = peptide binding conducted in aqueous buffers varied by peptide solubility
Wherever Organism, effect is given: test concentration or dose not given here.

Substance | Activities [2] | Organism, effect [3] | MIC [8] | MIC [9] | Target(s) [10, 22] | Organism, effect (morphology, biofilm and growth disruption) [11] | also measured
KFQGEFTNIGQSYIVSASHMSTSLNTGK [PF-583] | G B M | S. pneumoniae (D) |  |  |  |  | Organism, effect [1]: MRSA (I); Organism, effect [4]: S. epidermidis (I); Organism, effect [5]: S. mutans (F); MIC [6]: MRSA , 50 μM; MIC [7]: S. epidermidis, 50 μM
KFSDQIDKGQDALKDKLGDL [PF-525] | G M | S. pneumoniae (H) | A. niger, 50 μM | S. pneumoniae, 50 μM |  |  | 
LSEMERRRLRKRA-NH2 [PF-529] | G B M | S. pneumoniae (H) | A. niger, 50 μM | S. pneumoniae, 50 μM | S. epidermidis and E. coli and C. albicans and MRSA and S. pneumoniae and E. faecalis and C. jeikeium |  | 
NTNDLLQAFELMGLGMAGVFIVLGILYIVAELLIKIFPVNN [PF-C194] | G B |  |  |  |  | P. gingivalis (T) | Organism, effect (morphology, biofilm and growth disruption) [12]: F. nucleatum (T); Organism, effect (morphology, biofilm and growth disruption) [5]: S. mutans (F); Target(s) (microorganisms bound by the targeting peptide) [10]: A. naeslundii; also recorded: F. nucleatum; also recorded: P. gingivalis; also recorded: S. mutans; also recorded: T. denticola
NYAVVSHT [PF-209] | G B M |  |  |  |  |  | Organism, effect [1]: MRSA (I); Organism, effect [4]: S. epidermidis (C); Target(s) ([10]; binding in aqueous buffers depending on peptide solubility): C. albicans; also recorded: C. jeikeium; also recorded: C. jejuni; MIC [6]: MRSA , 50 μM; Organism, effect [13]: P. aeruginosa (H)
PDAPRTCYHKPILAALSRIVVTDR [PF-524] | G B M | S. pneumoniae (M) |  | S. pneumoniae, 50 μM | S. epidermidis and E. coli and P. aeruginosa and C. albicans and MRSA and S. pneumoniae and E. faecalis and C. jeikeium |  | Organism, effect [1]: MRSA (C); Organism, effect [14]: E. faecalis (C); Organism, effect [15]: E. coli (M)
PF-C052: peptide having multiple activities (SRFRNGV; Peptide with targeting and/or antimicrobial activity) | G B |  |  |  |  | P. gingivalis (H) | Target(s) (microorganisms bound by the targeting peptide) [10]: A. naeslundii; also recorded: F. nucleatum; also recorded: S. mutans
PF-C089 (MPKRHYYKLEAKALQFGLPFAYSPIQLLK; Peptide with targeting and/or antimicrobial activity) |  |  |  |  |  | P. gingivalis (R) | 
PF-C136: peptide having multiple activities (LILSYQASVYPLFAYLCQQKDY; Peptide with targeting and/or antimicrobial activity) | G B |  |  |  |  | P. gingivalis (R) | Organism, effect (morphology, biofilm and growth disruption) [12]: F. nucleatum (C); Target(s) (microorganisms bound by the targeting peptide) [10]: A. naeslundii; also recorded: F. nucleatum; also recorded: P. gingivalis; also recorded: S. mutans; also recorded: T. denticola
PF-C180: peptide having multiple activities (TVEELDKAFTWGAAAALAIGVIAINVGLAAGYCYNNNDVF; Peptide with targeting and/or antimicrobial activity) | G B |  |  |  |  | P. gingivalis (R) | Organism, effect (morphology, biofilm and growth disruption) [5]: S. mutans (S); Target(s) (microorganisms bound by the targeting peptide) [10]: F. nucleatum; also recorded: P. gingivalis; also recorded: S. mutans; also recorded: T. denticola
PF-C293 (IIIILPKIYLVCKTV; Peptide with targeting and/or antimicrobial activity) |  |  |  |  |  | P. gingivalis (R) | Organism, effect (morphology, biofilm and growth disruption) [12]: F. nucleatum (T); Organism, effect (morphology, biofilm and growth disruption) [5]: S. mutans (F)
RESKLIAMADMIRRRI-NH2 [PF-545] | G B M |  | A. niger, 50 μM |  | S. epidermidis; also recorded: E. coli; also recorded: P. aeruginosa; also recorded: S. pneumoniae; also recorded: E. faecalis; also recorded: C. jeikeium |  | Organism, effect [16]: B. subtilis (I); Organism, effect [14]: E. faecalis (H); Organism, effect [17]: C. albicans (B); MIC [18]: B. subtilis, 25 μM; Organism, effect [19]: C. jeikeium (H); MIC [6]: MRSA , 50 μM
RRGCTERLRRMARRNAWDLYAEHFY [PF-148] | G B M | S. pneumoniae (R) | A. niger, 50 μM |  |  |  | Organism, effect [16]: B. subtilis (I); Organism, effect [1]: MRSA (C); Organism, effect [17]: C. albicans (B); Organism, effect [20]: M. luteus (A); Organism, effect [4]: S. epidermidis (D); MIC [18]: B. subtilis, 50 μM; Organism, effect [19]: C. jeikeium (H); Organism, effect [21]: C. jejuni (H)
SLQSQLGPCLHDQRH [PF-448] | G B M | S. pneumoniae (I) | A. niger, 25 μM | S. pneumoniae, 50 μM | S. epidermidis; also recorded: M. luteus; also recorded: P. mirabilis; also recorded: E. coli; also recorded: S. pneumoniae; also recorded: E. faecalis; also recorded: C. jeikeium; also recorded: C. jejuni |  | 
VMQSLYVKPPLILVTKLAQQN [PF-511] | G B M | S. pneumoniae (H) |  | S. pneumoniae, 50 μM | E. coli; also recorded: P. aeruginosa; also recorded: S. pneumoniae; also recorded: C. jeikeium |  | 
